The values below come from US9359404B2, “Methods and products for treating preeclampsia and modulating blood pressure” (Scott & White Healthcare, priority 2011, dated 2016).

Ends that are not written are not given here.

The test system of data set [1] is pregnant mice. As to the kind of experiment: Total number of pups and malformed pups at day 18. Conditions: day 18, versus normal pregnancies or pregnancies treated with TLR agonists. Format: in vivo, C57BL/6 mice. As for the experimental part:
(§1) Experimental Design: C57BL/6 female mice were bred with male C57BL/6 mice. At day 13 mice were injected IP with vehicle, Poly I:C (SIGMA PO913 50 mg), CLO097 (Invivogen tlrl-C95-5), or R837 (Invivogen tlrl imq) with or without TPP (FRIMAVLAS (SEQ ID NO: 5). Mice were injected a total of 3 times, every other day. At day 18 mice were euthanized, uterus/pups, blood, blood vessels, and spleen were removed.
The number of pups and malformed pups was relatively consistent across all groups at this time point.

Data set [2] concerns pregnant mice with PE induced by TLR3 or TLR7 activation. As to the kind of experiment: Prevention of TLR3/TLR7-induced PE in pregnant mice, daily TPP gestational days 13-17. It is filed as in vivo. The text has this: FIG. 14 is a series of graphs depicting results from the daily administration of the CLIP-displacing peptide TPP. Daily administration of the CLIP-displacing peptide TPP (“Pep”-gestational days 13-17) prevented the development of hypertension, endothelial dysfunction, proteinuria, fetal demise, increased γδT cells, and decreased regulatory T cells in pregnant (P) mice treated with the TLR7 agonist R837 (PR mice) or the TLR3 agonist poly I:C (PPIC mice) on gestational days 13, 15, and 17.
TPP was utilized to displace CLIP on immune cells in mice during pregnancy.

Data set [3] relates to pregnant mice. As to the kind of experiment: Systolic blood pressure (tail-cuff plethysmography) in pregnant mice given TLR agonists with or without TPP. To be noted: pregnant mice treated with TLR agonist alone, day 17. It is filed as in vivo, C57BL/6 mice. As for the experimental part: as §1
Blood Pressure: Systolic arterial blood pressure was measured by tail-cuff plethysmography. […] were trained for three days prior to data collection. Animals were warmed to 32° C. and measurements were taken using an IITC Model 59 amplifier (Woodland Hills, Calif.), a system which correlates well with telemetry measurements of systolic blood pressure.
Pregnant mice (P) were treated with one of three TLR agonists to induce a physiological condition which mimics preeclampsia. Poly I:C is a TLR3 agonist and is well established in inducing characteristics of preeclampsia in mice. R837 is a […] activator of TLR7 but not TLR8. Similar to Poly I:C R837 induces characteristics of preeclampsia in mice. CLO097 is a […] that activates TLR7 and TLR8. While CLO097 induces some of the characteristics of preeclampsia the response is somewhat muted. […] The blood pressure of each mouse was measured on day 17 following treatment.

The subject of data set [4] is splenic CLIP+γδ T and B cells. Put plainly: Splenic CLIP+ γδ T cells and B cells after TLR3 or TLR7 activation in pregnant mice (flow cytometry). It is filed as in vivo. To be noted: for splenic CLIP+γδ T cells: pregnant mice treated with TLR agonist versus vehicle-treated pregnant controls. The text has this:
Next, it was important to determine whether this effect also happens in vivo. Therefore, we tested whether TLR activation via TLR3 or TLR7, which cause PE in mice only if they are pregnant, increases splenic CLIP+γδ T and B cells in mice.
It was shown that MHC class II engagement, in the absence of antigen receptor engagement, can lead to the death of APCs including B cells. Since TLR-mediated activation of B cells results in ectopic CLIP expression (FIGS. 11 and 12) we sought to determine whether CLIP serves as a negative regulator of B cell death. To test this mouse splenic B cells from C57B16 mice or CLIP KO mice were activated, with or without a TLR agonist, for 48 hrs. […] Splenocytes were analyzed by flow cytometry.
For orientation: In flow cytometry, cells or beads pass a laser one at a time.

Data set [5] deals with Aortic rings. As to the kind of experiment: Vasodilation/endothelial function of aortic rings (isometric force transducer). It is filed as in vivo. Conditions: vessels of TLR agonist-treated pregnant mice, phenylephrine contraction, acetylcholine relaxation. As for the experimental part: Experimental Design: Mice were treated as described in Example 1.
Vasodilation/Endothelial Function: Aortic rings were connected to an isometric force transducer in a custom-made 15-ml organ chamber filled with 37° C. physiological salt solution (119 mM NaCl, 4.7 mM KCl, 25 mM NaHCO3, 1.18 mM KH2PO4, 1.17 mM MgSO4-7H2O, 11.1 mM Dextrose, 2.5 mM CaCl2) with 95% O2-5% CO2. All experiments were performed in the presence of indomethacin […] to inhibit prostacyclin production by cyclooxygenase. Passive tension on the vessels was set at 400 mg based on previously generated length-tension curves, and isometric force generation was recorded continuously with a PowerLab system (AD Instruments, Colorado Springs, Colo.). After a 60-min equilibration period, vessels were contracted with phenylephrine […] and repeated until reproducible contractions were obtained. […] was administered to test the functional integrity of endothelium as measured by a relaxation response. Concentration-response curves were obtained in a half-log, cumulative fashion in response to acetylcholine (1 nM to […]) following contraction to an EC70 concentration of phenylephrine. Relaxation responses were expressed as percent relaxation from phenylephrine-induced contraction. […]

Data set [6] has as its system CLIP on the surface of B220 cells. Put plainly: Immune cell markers on splenocytes: CLIP on B220 cells. It is filed as in vivo. Conditions: pregnant mice, Poly I:C alone. As for the experimental part: Experimental Design: Mice were treated as described in Example 1. Splenocytes were isolated and stained for CD3, CD4, CD8, CD11b, Ly6G/C, CD25, FoxP3, CD19, B220, CD5, CLIP, and Gamma Delta TCR.
FIG. 9 is a set of graphs that depicts the removal of all CLIP (9A) versus bright CLIP (9B) and FIG. 9C from the surface of B220 cells. […] TLR agonists include CLO097; R837, and Poly I:C. FIG. 9C depicts the percentage of CLIP+cells resulting from Poly I:C stimulation with and without TPP.

With FRIMAVLAS [TPP, FRIMAVLAS], in data set [1], the “number of malformed pups” value is given as “caused no increase” and the “total number of pups” value is given as “caused no increase”. Further, the “safety, side effects on the mother or the pups” value in data set [2] was “safe in mice and has no side effects on the mother or the pups”.
In the case of `CC(C)Cn1cnc2c(N)nc3ccccc3c21` [R837], the blood pressure result in data set [3] is “significantly increased blood pressure”. Also, the “splenic CLIP+γδ T cells” value in data set [4] is given as “increased significantly”. The relaxation response result in data set [5] is “relaxation response is delayed”.
With Poly I:C, in data set [6], the “CLIP+ B cells” value is “significant increase”. In addition, the blood pressure entry in data set [3] is on record as “significantly increased blood pressure”. Also, in data set [4] (PE mice versus normal pregnancy), the “B cell death (splenic B cells)” value was “did not experience the increase in B cell death”. In addition, the “splenic CLIP+γδ T cells” value in data set [4] is “increased significantly”. In data set [5], the relaxation response result was “relaxation response is delayed”.
